Experimental data taken from patent EP1101492A1, “NOVEL REMEDIES FOR ALLERGIC DISEASES” (FUJI YAKUHIN KOGYO KABUSHIKI KAISHA, priority 1998, dated 2000).
Values joined by “and” are separate entries in the source; they are usually repeats but may differ in a detail not shown here. Equal values may be shown once.

Assays:
[1] = test system: mouse experimental atopic dermatitis models; test: Auricle edema in experimental atopic dermatitis model (anti-DNP IgE sensitization, DNFB elicitation); format: in vivo, Balb/c mice; details: for % Inhibition vLPR: auricle edema Day 7 post-elicitation
[2] = Body weight gain in sensitized mice; format: in vivo; details: test compound 50 µg/ear/dose, prednisolone 5 µg/ear/dose, in ethanol painted twice a day, Days 1, 4 and 7, vs solvent control (ethanol)
Procedure: Experimental atopic dermatitis model mice sensitized in the same manner as in Example 1 were examined for influence on body weight gains.
Each mouse was measured for its body weight not only immediately before the start in painting but also on Days 1, 4 and 7 after the start in painting. Each gain in body weight was calculated and considered to indicate an effect on body weight changes affected by said treatments.

[3] = test system: NC/Jic mice; test: Spontaneously manifested allergic dermatitis in NC/Jic mice (ointment); format: in vivo
Procedure: Compound No. 130 was well blended with an equivalent mixture of polyethylene glycol 400 and polyethylene glycol 4000 to give an approximately homogeneous product. Thus, an ointment containing the test compound at a rate of 0.1% was prepared. For control groups, an ointment base alone was employed.
Male NC/Jic mice (body weight, 24.1 to 31.9 g; age, 12 to 24 weeks old; supplier, Clea Japan, Inc.) were checked for their health after purchase. Immediately after the health check, the mice were housed under conventional conditions until dermatitis occurred. Mouse heads surrounding auricle portions were observed by eye once daily during the preparatory housing and, after a start in painting with ointments, once daily prior to painting. The severity of spontaneous dermatitis was scored according to a pre-assigned sore table (Table 8) for the observation of dermatitis. Animals seriatim used in the experiment were selected from those showing signs of dermatitis with score 1 or 2 for 3 consecutive days or longer.
The ointment was warmed to about 37°C prior to administration, and open-painted onto diseased sites at 100 mg/dosage/day. Seven weeks were set as a drug application period.

[4] = test system: guinea pig allergic rhinitis models; test: Allergic rhinitis model: nasal airway resistance; format: in vivo, Guinea pigs; details: 15 mg/kg s.c. one hour prior to rhinitis-induction; N=5; recorded 20 minutes after antigen-challenge
Procedure: Guinea pigs (male, Std:Hartley, 3 weeks old) were housed and fed in a aluminum cage at a rate of up to 5 animals per cage. After acclimatization for 1 week, the guinea pigs were administered intravenously with an anti-ovalbumin antibody (Nihon Bioresearch Inc., Hajima Institute; antibody titer by a 3-hour homologous passive cutaneous anaphylaxis reaction, 1 : 8192) prepared according to the Orange & Moore method (Orange, R. P. and Moore, E. G., The Journal of Immunology 116: p.392-397, 1976) into their auricle vein at a dose of 0.3 mL/animal for passive sensitization. Twenty four to twenty six hours after sensitization under conditions of fast and free access to drinking water, the sensitized guinea pigs were anesthetized with urethane (1.2 g/kg, intraperitoneal administration), fixed in a supine position, and mediad excised cervically to expose tracheas. […] Variations of the ventilatory overflow were quantitatively recorded on a recticoder (RECTI-HORIZ-8K, Nippon Denki Sanei K.K.) for 20 minutes after antigen-challenge.
Wave height (cm) was measured on recorded papers and a nasal airway resistance value was calculated according to the following formula: Percent Increase (%) in Nasal Airway Resistance =((Observed Value) - (Value prior to Administration))/((Complete Obstruction)- (Value prior to Administration))× 100 [formula] […]

CNC(=O)[C@H](Cc1ccc(NC(=N)N)cc1)NC(=O)[C@H](CC(C)C)C(CCCc1ccccc1)C(=O)NO (single isomer, unassigned) [Compound No. 130, N-[4-(N-Hydroxyamino)-2(R)-isobutyl-3(R or S)-(3-phenyltrimethylene)succinyl)-L-4'-guanidophenylalanine-N-methylamide 1 acetate]
inhibitory efficacy on IgE-mediated auricle edema (FIG. 7) ([1]; 50 µg/ear/dose in ethanol painted twice a day, 1 hour pre-elicitation, 0.25, 3, 4, 5 and 6 days post-elicitation): endowed with an inhibitory activity on edemas in any of IPR, LPR, and vLPR | inhibitory efficacy on IgE-mediated auricle edema (FIG. 6) ([1]; 60 mg/kg s.c. 24 and 2 hours prior to elicitation only, compared with prednisolone 10 mg/kg i.p., IPR 1 hour, LPR 1 day, vLPR 7 days): edema-inhibitory activity equivalent to that of prednisolone in IPR and slightly and markedly higher than that of prednisolone in LPR and vLPR, respectively | % Inhibition IPR ([1]; auricle edema 1 hour post-elicitation, test compounds 60 mg/kg s.c., prednisolone 10 mg/kg i.p., once a day, 24 & 2 hours prior to DNFB-elicitation, vs untreated group): 64.4% | % Inhibition LPR ([1]; auricle edema Day 1 post-elicitation, test compounds 60 mg/kg s.c., prednisolone 10 mg/kg i.p., once a day, 24 & 2 hours prior to DNFB-elicitation, vs untreated group): 51.3% | % Inhibition vLPR ([1]; test compounds 60 mg/kg s.c., prednisolone 10 mg/kg i.p., daily from 3 to 6 days after DNFB-elicitation): 52.7% | % Inhibition vLPR ([1]; test compounds 60 mg/kg s.c., prednisolone 10 mg/kg i.p., daily from 1 day prior to through 5 days after DNFB-elicitation): 79.0% | gain in body weight (FIG. 10) [2]: almost equivalent to that in the solvent control group | Dermatitis Score (Average ± S. D.*) ([3]; 0.1 % ointment, 100 mg/dosage/day for seven weeks, score (0-4) on Day 49, 3 animals, ointment base 3.7 ± 0.6): 2.3 ± 1.5 | scratching actions (individual animals) ([3]; 0.1% ointment, counted for 30 minutes before painting, Days 47 to 48, ointment base 126, 138, 206): 19 scratching actions and 81 scratching actions and 177 scratching actions | scratching actions (average) ([3]; 0.1% ointment, counted for 30 minutes before painting, Days 47 to 48, ointment base average 157): 92 scratching actions | increase in nasal airway resistance due to antigen challenge (FIG. 15) [4]: markedly ameliorates an increase in nasal airway resistance
